Data as given in patent US5874436A, “Triphenylalkyl antimicrobial agents” (priority 1997, dated 1999).
≈ marks a conversion by molar mass, not a printed value.

Legend:
[1] = biological target: T1, Kinase A and Spo0F (Bacillus subtilis, UniProt P16497); assay: Autophosphorylation of Kinase A and transphosphorylation of Spo0F assay (HPK in vitro assay); format: biochemical; details: inhibitor concentrations from 1 to 500 μM, [32P]ATP, phosphoimager
T1 construct: made in house; host or cells: E. coli (recombinant, overexpressing)
T1 sequence (P16497 1-606): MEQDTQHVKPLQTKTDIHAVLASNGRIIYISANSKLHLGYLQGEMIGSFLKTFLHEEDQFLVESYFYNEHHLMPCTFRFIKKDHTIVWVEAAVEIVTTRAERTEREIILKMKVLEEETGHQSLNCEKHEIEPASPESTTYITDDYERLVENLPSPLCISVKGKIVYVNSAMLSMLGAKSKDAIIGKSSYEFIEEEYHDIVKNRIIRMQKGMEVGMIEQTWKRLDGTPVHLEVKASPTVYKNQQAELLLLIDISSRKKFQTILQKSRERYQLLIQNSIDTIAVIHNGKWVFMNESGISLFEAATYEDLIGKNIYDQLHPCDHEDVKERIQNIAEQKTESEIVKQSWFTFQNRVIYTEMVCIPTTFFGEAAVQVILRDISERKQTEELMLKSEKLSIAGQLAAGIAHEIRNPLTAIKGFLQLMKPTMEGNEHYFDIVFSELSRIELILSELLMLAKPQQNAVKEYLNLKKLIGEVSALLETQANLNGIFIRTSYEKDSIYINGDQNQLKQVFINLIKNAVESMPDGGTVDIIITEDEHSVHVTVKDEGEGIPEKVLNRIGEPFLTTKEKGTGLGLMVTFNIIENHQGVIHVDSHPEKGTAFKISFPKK
Experimental: 1. Autophosphorylation of Kinase A and Transphosphorylation of Spo0F Assay
To study the effect of the compounds of the present invention on the signal transduction process in bacteria, the inhibiting effect of the compounds on the sporulation operon proteins Kinase A and Spo0F was examined. Specifically, the inhibition of autophosphorylation of Kinase A and the transphosphorylation of Spo0F was determined in the following assays. The Spo0F response regulator is the primary substrate for phosphorylation by the protein kinase, Kin A, involved in the sporulation process in bacteria. See D. Burbulys, K. A. Trach, J. A. Hoch, Cell, 64, 545-552 (1991). Spo0F and KinA were prepared from recombinant E. coli overexpressing the proteins (J. Cavanagh et al, Amino Acids, 6, 131-140 (1994) and references therein).
The following stock reagents were either prepared and used promptly or stored at the indicated temperature:
8 X Salts : 2M KCl (5 mL), 1M MgCl2 (800 mL), 1M CaCl2 (100 mL), 10 mg/mL phenylmethylsulfonyl fluoride (200 mL), 1 M dithioreitol (50 mL), 0.25M Na2 EDTA (32 mL) and H2 O mL (-20° C.)
5×Loading Dye: 0.5M TRIS-HCl-pH 6.8 (7.5 mL), 10% SDS (2 mL) 0.1% bromophenol blue (0.5 mL), 100% glycerol (3 mL) and 12.5 M 2-mercaptoethanol (0.3 mL)
1-1.3 mg/mL KinA:15 mM TRIS-HCl, pH 8.0, 6 mM KCl; 4 mM 2-mercaptoethanol; 40% glycerol (-20° C.)
1 mg/mL Spo0F: 17.5 mM TRIS-HCl, pH 8.0; 0.7 mM KCl; 0.7 mM MgCl2; 0.7 mM CaCl2; 5mM 2-mercaptoethanol; 30% Glycerol (-20° C.)
5% Stacking Gel: 40% 29:1 acrylamide:bis acrylamide (1.25 mL), 0.5M TRIS-HCl, pH 6.8 (2.5 mL), 10% SDS (0.1 mL), D-H2 O (6.15 mL) 10% ammonium persulfate (100 mL) and TEMED (25 mL) SDS Running Buffer: TRIS-BASE (3.02 g), glycine (14.4 g) SDS (1 g), D-H2 O (to 1L)
The reaction mixture was prepared from 8×Salts (87 μL), 1M TRIS, pH 8 (118 μL), 50% glycerol (63 μL), Spo0F (14.1 μL) and KinA (7.0 μL). Microcentrifuge tubes were charged with the reaction mixture (18.5 μL) and a 1.0 mM solution of the test compound in 5% DMSO (18.5 μL), and incubated for 15 min on ice. 100 mM ATP solution (3.0 μl, containing 625 μCi [^32 P]ATP) was added, and the mixture left for 10 minutes at room temperature. The reaction was quenched with 5×loading dye (10 μL per tube) and the samples were loaded on a prepared 5% Stacking Gel, or stored on dry ice until ready for use. The prepared wells were filled with SDS Running Buffer, samples were loaded into the wells, and 80 volts were applied to the gel until the dye front reached the bottom of the stacking gel. The voltage was then increased to 250 volts until electrophoresis was complete. Radioactive bands in the gel corresponding to phosphorylated KinA and Spo0F were imaged and quantitated with a phosphoimager.
If either enzyme was inhibited (as evidenced by the absence of labelled protein in the developed gel), an IC50 was calculated by running the assay with a range of inhibitor concentrations from 1 to 500 μM. After electrophoresis of the reaction mixtures, percent inhibition was determined by measuring the concentration of radioactive phosphorus with a phosphoimager and calculating the values using a software program (BioRad Molecular Analyst).

[2] = tested on: selected microorganisms; assay: MIC antimicrobial assay (NCCLS microdilution broth method); format: cell-based
Experimental: 2. MIC Anitimicrobial Assay
The in vitro antimicrobial activity of the compounds was determined by the microdilution broth method following the test method from the National Committee for Laboratory Standards (NCCLS). This method is described in the NCCLS Document M7-A2, Vol.10, No.8 "Methods for Dilution Antimicrobial Susceptibility Test for Bacteria that Grow Aerobically--Second Edition."
In this method two-fold serial dilutions of drug in cation supplemented Mueller-Hinton broth are added to wells in microdilution trays. The test organisms are prepared by adjusting the turbidity of actively growing broth cultures so that the final concentration of test organism after it is added to the wells is approximately 5×10^4 CFUs/well).
Following inoculation of the microdilution trays, the trays are incubated at 35° C. for 16-20 hours and then read. […] The amount of growth in the wells containing the test compound is compared with the amount of growth in the growth-control wells (no test compound) used in each tray.

Row | IC50 [1] [µM] | Compound | MIC [2] [µg/mL]
1 | 200 | O=C(CC(c1ccccc1)(c1ccccc1)c1ccccc1)Nc1ccc(N2CCNCC2)cc1 [Example 1, 4-[4-(3,3,3-Triphenylpropanoylamino)phenyl]piperazine] | –
2 | 19 | NCc1ccc(OCCC(c2ccccc2)(c2ccccc2)c2ccccc2)cc1 [Example 4, 4-(3,3,3-triphenylpropoxy)benzylamine] | –
3 | 150 | NCCc1ccc(OCCC(c2ccc(Cl)cc2)(c2ccc(Cl)cc2)c2ccc(Cl)cc2)cc1 [Example 6] | –
4 | 80 | NCCc1cccc(OCCC(c2ccccc2)(c2ccccc2)c2ccccc2)c1 [Example 7, 2-(3-(3,3,3-triphenylpropoxy)phenyl)ethylamine] | –
5 | 21 | N=C(N)NCCc1ccc(OCCCC(c2ccccc2)(c2ccccc2)c2ccccc2)cc1 [Example 11] | –
6 | 260 | c1ccc(C(CCOc2ccc(CCC3=NCCO3)cc2)(c2ccccc2)c2ccccc2)cc1 [Example 19, 4.5-Dihydro-2-{2-[4-(3,3,3-triphenylpropoxy)-phenyl]ethyl} oxazole] | –
7 | 290 | O=C(O)c1ccc(OCCC(c2ccccc2)(c2ccccc2)c2ccccc2)cc1 [Example 21, 4-(3,3,3-Triphenylpropoxy)benzoic acid] | –
8 | 73 | O=C(O)C(O)c1ccc(OCCC(c2ccccc2)(c2ccccc2)c2ccccc2)cc1 (stereo not drawn) [Example 37, 2-[4-(3,3,3-Triphenylpropoxy)phenyl]glycolic acid] | –
9 | 27 | O=C(O)CCc1ccccc1OCCC(c1ccccc1)(c1ccccc1)c1ccccc1 [Example 38, 3-[2-(3,3,3-Triphenylpropoxy)phenyl]propionic acid] | –
10 | 110 | c1ccc(C(CCOc2ccc(-c3nnn[nH]3)cc2)(c2ccccc2)c2ccccc2)cc1 [Example 39, 5-[4-(3,3,3-Triphenylpropoxy)phenyl]-1H-tetrazole] | –
11 | 13 | NCCCc1ccc(SCCC(c2ccccc2)(c2ccccc2)c2ccccc2)cc1 [Example 40, 3-[4-(3,3,3-Triphenylpropylthio)phenyl]propylamine] | –
12 | 18 | O=C1NC(=O)C(c2ccc(OCCC(c3ccccc3)(c3ccccc3)c3ccccc3)cc2)S1 (stereo not drawn) [Example 41, 5-[4-(3,3,3-Triphenylpropoxy)phenyl]thiazolidine-2,4-dione] | –
13 | 85 | O=C(O)c1c(O)cccc1OCCC(c1ccccc1)(c1ccccc1)c1ccccc1 [Example 42, 2-Hydroxy-6-(3,3,3-triphenylpropoxy)benzoic acid] | –
14 | 40 | O=C(O)/C=C/c1cccc(OCCC(c2ccccc2)(c2ccccc2)c2ccccc2)c1 [Example 43, trans 3-(3,3,3-Triphenylpropoxy)cinnamic acid] | –
15 | 71 | O=C(O)COc1cccc(OCCC(c2ccccc2)(c2ccccc2)c2ccccc2)c1 [Example 44, 3-(3,3,3-triphenylpropoxy)phenoxyacetic acid] | –
16 | 20 | O=C(O)COc1ccccc1OCCC(c1ccccc1)(c1ccccc1)c1ccccc1 [Example 45, 2-(3,3,3-triphenylpropoxy)phenoxyacetic acid] | –
17 | 16 | O=C(O)CCCOc1cccc(OCCC(c2ccccc2)(c2ccccc2)c2ccccc2)c1 [Example 46, 4-[3-(3,3,3-triphenylpropoxy)phenoxy]butyric acid] | –

Row | Compound | IC50 [1] [µM] | MIC [2] [µg/mL]
18 | C1=C(c2ccc(OCCC(c3ccccc3)(c3ccccc3)c3ccccc3)cc2)CCNC1 [Example 2, 4-[4-(3,3,3-Triphenylpropyloxy)phenyl]-1,2,3,6-tetrahydropiperidine] | 170 | –
19 | NCCc1ccc(OCCC(c2ccccc2)(c2ccccc2)c2ccccc2)cc1 [Example 3, 2-(4-(3,3,3-triphenylpropoxy)phenyl)ethylamine] | 14 | 2 to 4 (≈ 4.91 to 9.81 µM)
20 | N=C(N)NCCc1ccc(OCCC(c2ccccc2)(c2ccccc2)c2ccccc2)cc1 [Example 5] | 5 | 1 to 2 (≈ 2.22 to 4.45 µM)
21 | COc1ccc(CCN)cc1OCCC(c1ccccc1)(c1ccccc1)c1ccccc1 [Example 8, 2-(4-methoxy-3-(3,3,3-triphenylpropoxy)-phenyl)ethylamine] | 27 | 4 (≈ 9.14 µM)
22 | N=C(N)NCCc1ccc(OCCC(c2ccc(Cl)cc2)(c2ccc(Cl)cc2)c2ccc(Cl)cc2)cc1 [Example 9, N-(2-(4-(3,3,3-tris(4-chlorophenyl)propoxy)-phenyl)ethyl)guanidine] | 21 | 8 (≈ 14.5 µM)
23 | N=C(N)NCCc1ccc(OCCCCC(c2ccccc2)(c2ccccc2)c2ccccc2)cc1 [Example 10] | 15 | 2 to 4 (≈ 4.19 to 8.37 µM)
24 | O=C(O)CCc1ccc(OCCC(c2ccccc2)(c2ccccc2)c2ccccc2)cc1 [Example 12, 3-[4-(3,3,3-Triphenylpropoxy)phenyl]propionic acid] | 51 | 2 to 16 (≈ 4.58 to 36.7 µM)
25 | O=C(O)Cc1ccc(OCCC(c2ccccc2)(c2ccccc2)c2ccccc2)cc1 [Example 13, 2-[4-(3,3,3-Triphenylpropoxy)phenyl]acetic acid] | 50 | 8 to 16 (≈ 18.9 to 37.9 µM)
26 | O=C(O)CCc1ccc(SCCC(c2ccccc2)(c2ccccc2)c2ccccc2)cc1 [Example 14, 3-[4-(3,3,3-Triphenylpropylthio)phenyl]propionic acid] | 34 | 4 to 8 (≈ 8.84 to 17.7 µM)
27 | O=C(O)CCCc1ccc(OCCC(c2ccccc2)(c2ccccc2)c2ccccc2)cc1 [Example 15, 4-[4-(3,3,3-Triphenylpropoxy)phenyl]butyric acid] | 14 | 8 to 64 (≈ 17.8 to 142 µM)
28 | NCCc1ccc(NC(=O)CC(c2ccccc2)(c2ccccc2)c2ccccc2)cc1 [Example 16, N-[4-(2-Aminoethyl)phenyl]-3,3,3triphenylpropionamide] | 59 | 32 to 64 (≈ 76.1 to 152 µM)
29 | O=C(O)c1ccc2cc(OCCC(c3ccccc3)(c3ccccc3)c3ccccc3)ccc2c1 [Example 17, 6-(3,3,3-Triphenylpropoxy)-2-naphthoic acid] | 300 | 4 to 64 (≈ 8.72 to 140 µM)
30 | N=C(N)NCCc1ccc(NC(=O)CC(c2ccccc2)(c2ccccc2)c2ccccc2)cc1 [Example 18, N-[4-(2-Guanidinoethyl)phenyl]-3,3,3-triphenylpropionamide] | 51 | 4 to 16 (≈ 8.65 to 34.6 µM)
